From patent US20040018238A1, “Biodegradable vehicles and delivery systems of biolgically active substances” (priority 2003, published 2004)
Structures can show the parent of a compound that is named as a salt. Each block holds one compound with its values, some of them ahead of it.

Experiments:
[1] = Solubility in water / dissolution buffer; assay type: physicochemical
[2] = In vitro release of naltrexone from drug-loaded formulations at 37° C. in isotonic phosphate buffer; assay type: physicochemical; details: compared with hydrated naltrexone base; 25% 50/50 PLGA (i.v. 0.64) with pure PEG 400 or 50/50% PEG 400/TEC; drug 20% w/w
Procedure: The solutions were stirred to yield a uniform mixture. Acetone was evaporated from the mixtures by heating at 60-75° C. with constant stirring. The blank formulations were kept in a vacuum oven at 60-75° C. overnight to ensure complete removal of acetone. […] Either hydrated naltrexone base (20% w/w) or naltrexone hydrochloride (20% w/w) was added to the blank formulations and mixed thoroughly to ensure uniform distribution of the drugs in the formulations. Drug release from the drug-loaded formulations was performed at 37° C. in isotonic phosphate buffer. […] This is because the solubility of the naltrexone hydrochloride in the dissolution buffer is much greater than that of the hydrated naltrexone base.

[3] = In vitro release of oxytetracycline from drug-loaded formulations at 37° C. in isotonic phosphate buffer containing sodium sulfite; assay type: physicochemical; details: for drug release / drug release (rank among plasticizers): drug 20% w/w
Procedure: A polymer (25% w/w of 50/50 lactide-co-glycolide copolymer, inherent viscosity of 0.59) was dissolved in a minimum quantity of acetone. Pure polyethylene glycol 400 (PEG 400) was added to the polymer solution. The solution was stirred to yield a uniform mixture. Acetone was evaporated from the mixture by heating at 60-75° C. with constant stirring. The blank formulation was kept in a vacuum oven at 60-75° C. overnight to ensure complete removal of acetone. […] Three different concentrations of oxytetracycline base (either 10, 20 or 30% w/w) were added to the blank formulation and mixed thoroughly to ensure uniform distribution of the drug in the formulations. Drug release from the drug-loaded formulations was performed at 37° C. in isotonic phosphate buffer containing sodium sulfite as an antioxidant. […] This increase occurred because, at higher drug-loadings, more drug is available on the surface of the formulations for release. Moreover, a higher drug concentration gradient between the formulation and the dissolution medium is expected at 30% w/w drug-loading compared to the one at 10% w/w drug loading.
(§1) A polymer (25% w/w of 50/50 lactide-co-glycolide copolymer, inherent viscosity of 0.59) was dissolved in a minimum quantity of acetone. […] The resulting solutions were stirred to yield uniform mixtures. Acetone was evaporated from the mixtures by heating at 60-75° C. with constant stirring. The blank formulations were kept in a vacuum oven at 60-75° C. overnight to ensure complete removal of acetone. […] Oxytetracycline base (20% w/w) was added to each blank formulation and mixed thoroughly to ensure uniform distribution of the drug in the formulations. Drug release from the drug-loaded formulations was performed at 37° C. in isotonic phosphate buffer containing sodium sulfite as an antioxidant.
Three different concentrations (10, 20 or 25% w/w) of a polymer (50/50 lactide-co-glycolide copolymer, inherent viscosity of 0.59) were dissolved in a minimum quantity of acetone. Pure PEG 400 (90, 80 or 75% w/w) was added to the polymer solutions. The solutions were stirred to yield uniform mixtures. Acetone was evaporated from the mixtures by heating at 60-75° C. with constant stirring. The blank formulations were kept in a vacuum oven at 60-75° C. overnight to ensure complete removal of acetone. The resulting formulations obtained were matrices with varying viscosities or consistency. The formulation with 25% polymer was considerably more viscous than the one with 10% polymer. Oxytetracycline base (20% w/w) was added to each blank formulation and mixed thoroughly to ensure uniform distribution of the drug in the formulations. Drug release from the drug-loaded formulations was performed at 37° C. in isotonic phosphate buffer containing sodium sulfite as an antioxidant.
as §1, with “overmight” for “overnight”
The resulting solutions were stirred to yield uniform mixtures. Acetone was evaporated from the mixtures by heating at 60-75° C. with constant stirring. The blank formulations were kept in a vacuum oven at 60-75° C. overnight to ensure complete removal of acetone. […] Oxytetracycline base (20% w/w) was added to each blank formulation and mixed thoroughly to ensure uniform distribution of the drug in the formulations. […]

[4] = In vivo release of oxytetracycline from biodegradable delivery systems in quail; details: delivery systems with varying polymer molecular weights (FIG. 16)
Description: FIG. 16 describes the effect of varying polymer molecular weights on in vivo release of oxytetracycline base from biodegradable delivery systems.

Structure (SMILES): O=C1CC[C@@]2(O)[C@H]3Cc4ccc(O)c5c4[C@@]2(CCN3CC2CC2)[C@H]1O5 [naltrexone hydrochloride]
solubility in the dissolution buffer ([1]; compared with hydrated naltrexone base, isotonic phosphate buffer): much greater | drug release [2]: considerably faster

Structure (SMILES): CN(C)[C@@H]1C(=O)C(C(N)=O)=C(O)[C@@]2(O)C(=O)C3=C(O)c4c(O)cccc4[C@@](C)(O)[C@H]3[C@H](O)[C@@H]12 [oxytetracycline base]
drug release ([3]; blend of 75% PEG 400 and 25% TEC compared with 50/50% PEG 400/TEC at similar polymer to plasticizer ratio): considerably faster | drug release ([3]; effect of decreasing polymer from 25% to 10% (PEG 400 75% to 90%), 50/50 PLGA i.v. 0.59): dramatically increased the drug release | drug release ([3]; effect of decreasing polymer inherent viscosity from 0.76 to 0.15, 50/50 PLGA, PEG 400): dramatically increased the drug release | drug release ([3]; effect of going from 0% PEG 400/100% TEC to 100% PEG 400/0% TEC, 25% w/w 50/50 PLGA (i.v. 0.59)): faster drug release | cumulative amount of drug released at the end of 360 hours ([3]; effect of increasing drug loading from 10 to 30% w/w, 25% w/w 50/50 PLGA (i.v. 0.59), PEG 400): increased the cumulative amount of drug released | drug release (rank among plasticizers) ([3]; formulations prepared with ATEC, 25% w/w 50/50 PLGA (i.v. 0.59)): slowest | drug release (rank among plasticizers) ([3]; formulations prepared with PEG 400, 25% w/w 50/50 PLGA (i.v. 0.59)): fastest | drug release (rank among plasticizers) ([3]; formulations prepared with TEC, 25% w/w 50/50 PLGA (i.v. 0.59)): Intermediate drug release | drug release ([3]; polymer to plasticizer ratio 1:5 (16.67% polymer) compared with 1:3 (25% polymer), PEG 400/TEC blends): faster drug release | in vivo release [4]: desired controlled release of the OTC was achieved

aqueous solubility ([1]; hydrochloride salt compared with the base): greater aqueous solubility
Structure (SMILES): CN(C)[C@@H]1C(O)=C(C(N)=O)C(=O)[C@@]2(O)C(O)=C3C(=O)c4c(O)cccc4[C@@](C)(O)[C@H]3[C@H](O)[C@@H]12 [oxytetracycline hydrochloride]
